In ChEMBL document CHEMBL1122453, “Structure-activity relationships in the antiinflammatory steroids: a pattern-recognition approach” (1983):

Species: Homo sapiens
Test: Potency relative to fluocinolone 16,17-acetonide in the human vasoconstictor test
Type: functional

Row | Structure (SMILES) | Potency
1 | CC(=O)O[C@]1(C(=O)CO)CCC2C3C[C@H](F)C4=CC(=O)C=CC4(C)[C@@]3(F)C(O)CC21C (stereo not given in full) | <360
2 | CCCCC(=O)O[C@]1(C(=O)COC(C)=O)CC[C@H]2[C@@H]3C[C@H](F)C4=CC(=O)CC[C@]4(C)[C@@]3(F)[C@@H](O)C[C@@]21C | 360
3 | CCCCC(=O)O[C@]1(C(=O)CO)CCC2C3C[C@H](F)C4=CC(=O)CCC4(C)[C@@]3(F)C(O)CC21C (stereo not given in full) | 360
4 | CCOC(=O)[C@@]1(OC(C)=O)[C@@H](C)CC2C3CCC4=CC(=O)C=CC4(C)C3(F)[C@@H](O)CC21C (stereo not given in full) | 16
5 | COC(=O)[C@@]1(OC(C)=O)[C@@H](C)CC2C3CCC4=CC(=O)C=CC4(C)[C@@]3(F)[C@@H](O)CC21C (stereo not given in full) | 385
6 | CCC(=O)OCC(=O)[C@@]1(OC(=O)C(C)C)CCC2C3C[C@H](F)C4=CC(=O)C=CC4(C)[C@@]3(F)C(O)CC21C (stereo not given in full) | 900
7 | CC12C=CC(=O)C=C1[C@@H](F)CC1C3CC[C@](O)(C(=O)CO)C3(C)CC(O)[C@@]12F (stereo not given in full) | <360
8 | CC(=O)O[C@]1(C(=O)CO)C(C)CC2C3CCC4=CC(=O)C=CC4(C)[C@@]3(F)C(O)CC21C (stereo not given in full) | 114
9 | CCCCC(=O)O[C@]1(C(=O)CCl)[C@@H](C)C[C@H]2[C@@H]3CCC4=CC(=O)C=C[C@]4(C)[C@@]3(F)[C@@H](O)C[C@@]21C | 91
10 | CCCCC(=O)OCC(=O)[C@@]1(O)C(C)CC2C3CCC4=CC(=O)C=CC4(C)[C@@]3(F)C(O)CC21C (stereo not given in full) | 26
11 | CC(=O)OCC(=O)[C@@]1(O)[C@@H](C)C[C@H]2[C@@H]3CCC4=CC(=O)C=C[C@]4(C)[C@@]3(F)[C@@H](O)C[C@@]21C [BETAMETHASONE ACETATE] | 18
12 | CC(=O)[C@@]1(O)CCC2C3CCC4=CC(=O)CCC4(C)C3C(O)CC21C (stereo not given in full) | 0.4
13 | CCCOC(=O)[C@@]1(OC(=O)CCC)[C@@H](C)CC2C3CCC4=CC(=O)C=CC4(C)C3(F)[C@@H](O)CC21C (stereo not given in full) | 40
14 | CCC(=O)O[C@]1(C(=O)CO)[C@@H](C)C[C@H]2[C@@H]3CCC4=CC(=O)C=C[C@]4(C)[C@@]3(F)[C@@H](O)C[C@@]21C | 190
15 | CCC(=O)O[C@]1(C(=O)COC(C)=O)CCC2C3C[C@H](F)C4=CC(=O)C=CC4(C)[C@@]3(F)C(O)CC21C (stereo not given in full) | 1080
16 | CCC(=O)OCC(=O)[C@@]1(OC(=O)CC)[C@@H](C)C[C@H]2[C@@H]3CCC4=CC(=O)C=C[C@]4(C)[C@@]3(Cl)[C@@H](O)C[C@@]21C [BECLOMETHASONE DIPROPIONATE] | 500
17 | CCC(=O)O[C@]1(C(C)=O)CCC2C3C[C@H](F)C4=CC(=O)C=CC4(C)[C@@]3(F)C(O)CC21C (stereo not given in full) | 900
18 | CCCC(=O)OCC(=O)[C@@]1(O)C(C)CC2C3CCC4=CC(=O)C=CC4(C)[C@@]3(F)C(O)CC21C (stereo not given in full) | 85
19 | CCCOC(=O)[C@@]1(O)[C@@H](C)CC2C3CCC4=CC(=O)C=CC4(C)C3(F)[C@@H](O)CC21C (stereo not given in full) | 5
20 | CCCC(=O)O[C@]1(C(=O)COC(C)=O)CC[C@H]2[C@@H]3C[C@H](F)C4=CC(=O)C=C[C@]4(C)[C@@]3(F)[C@@H](O)C[C@@]21C [DIFLUPREDNATE] | 1170
21 | CC(=O)O[C@]1(C(=O)COC(=O)C(C)C)CCC2C3C[C@H](F)C4=CC(=O)C=CC4(C)[C@@]3(F)C(O)CC21C (stereo not given in full) | 720
22 | CCCC(=O)O[C@]1(C(=O)COC(=O)C(C)C)CCC2C3C[C@H](F)C4=CC(=O)C=CC4(C)[C@@]3(F)C(O)CC21C (stereo not given in full) | 1080

Row | Structure (SMILES) | Potency
23 | CCC(=O)O[C@]1(C(=O)CO)CCC2C3C[C@H](F)C4=CC(=O)C=CC4(C)[C@@]3(F)C(O)CC21C (stereo not given in full) | <360
24 | CCCC(=O)O[C@]1(C(=O)OCC)[C@@H](C)CC2C3CCC4=CC(=O)C=CC4(C)C3(F)[C@@H](O)CC21C (stereo not given in full) | 40
25 | CC12CCC(=O)C=C1CCC1C2C(O)CC2(C)C1CC[C@]2(O)C(=O)COP(=O)(O)O (stereo not given in full) | 0.01
26 | CCCC(=O)O[C@]1(C(=O)COC(=O)CC)CCC2C3C[C@H](F)C4=CC(=O)C=CC4(C)[C@@]3(F)C(O)CC21C (stereo not given in full) | 1058
27 | CCCC(=O)O[C@]1(C(=O)CO)CCC2C3C[C@H](F)C4=CC(=O)C=CC4(C)[C@@]3(F)C(O)CC21C (stereo not given in full) | <360
28 | CCCC(=O)OCC(=O)[C@@]1(OC(=O)CCC)CC[C@H]2[C@@H]3C[C@H](F)C4=CC(=O)C=C[C@]4(C)[C@@]3(F)[C@@H](O)C[C@@]21C | 540
29 | C[C@]12C=CC(=O)C=C1[C@@H](F)C[C@@H]1[C@@H]2[C@@H](O)C[C@@]2(C)[C@H]1CC[C@]2(O)C(=O)CO [FLUPREDNISOLONE] | 1
30 | CC(C)C(=O)O[C@]1(C(=O)CO)C(C)CC2C3CCC4=CC(=O)C=CC4(C)[C@@]3(F)C(O)CC21C (stereo not given in full) | 470
31 | C[C@]12C=CC(=O)C=C1CC[C@@H]1[C@@H]2[C@@H](O)C[C@@]2(C)[C@H]1CC[C@]2(O)C(=O)COP(=O)(O)O [PREDNISOLONE PHOSPHORIC ACID] | 0.1
32 | CCCCC(=O)O[C@]1(C(=O)CO)[C@@H](C)C[C@H]2[C@@H]3CCC4=CC(=O)C=C[C@]4(C)[C@@]3(F)[C@@H](O)C[C@@]21C [BETAMETHASONE VALERATE] | 360
33 | CC(=O)O[C@]1(C(=O)CCl)[C@@H](C)CC2C3CCC4=CC(=O)C=CC4(C)[C@@]3(F)[C@@H](O)CC21C (stereo not given in full) | 812
34 | CCC(=O)O[C@]1(C(=O)CCl)[C@@H](C)C[C@H]2[C@@H]3CCC4=CC(=O)C=C[C@]4(C)[C@@]3(F)[C@@H](O)C[C@@]21C [CLOBETASOL PROPIONATE] | 1869
35 | CCC(=O)O[C@]1(C(=O)CO)[C@@H](C)C[C@H]2[C@@H]3CCC4=CC(=O)C=C[C@]4(C)[C@@]3(Cl)[C@@H](O)C[C@@]21C [BECLOMETHASONE 17-MONOPROPIONATE] | 360
36 | CCC(=O)O[C@]1(C(=O)O)[C@@H](C)CC2C3CCC4=CC(=O)C=CC4(C)C3(F)[C@@H](O)CC21C (stereo not given in full) | <1
37 | CCC(=O)OCC(=O)[C@@]1(OC(=O)CC)[C@@H](C)C[C@H]2[C@@H]3CCC4=CC(=O)C=C[C@]4(C)[C@@]3(F)[C@@H](O)C[C@@]21C [BETAMETHASONE DIPROPIONATE] | 1300
38 | CCCCC(=O)O[C@]1(C(=O)O)[C@@H](C)CC2C3CCC4=CC(=O)C=CC4(C)C3(F)[C@@H](O)CC21C (stereo not given in full) | <1
39 | CCCCC(=O)O[C@]1(C(=O)CO)CCC2C3C[C@H](F)C4=CC(=O)C=CC4(C)[C@@]3(F)C(O)CC21C (stereo not given in full) | 360
40 | C[C@H]1C[C@H]2C3CCC4=CC(=O)C=C[C@]4(C)[C@@]3(F)[C@@H](O)C[C@]2(C)[C@@]1(O)C(=O)O (stereo not given in full) | <1
41 | CCCC(=O)O[C@]1(C(=O)CO)C(C)CC2C3CCC4=CC(=O)C=CC4(C)[C@@]3(F)C(O)CC21C (stereo not given in full) | 168
42 | CC(=O)O[C@]1(C(C)=O)CCC2C3C[C@H](F)C4=CC(=O)C=CC4(C)[C@@]3(F)C(O)CC21C (stereo not given in full) | 540
43 | CC(=O)O[C@]1(C(=O)O)[C@@H](C)CC2C3CCC4=CC(=O)C=CC4(C)C3(F)[C@@H](O)CC21C (stereo not given in full) | <1
44 | CC(=O)OCC(=O)[C@@]1(OC(=O)C(C)C)CCC2C3C[C@H](F)C4=CC(=O)C=CC4(C)[C@@]3(F)C(O)CC21C (stereo not given in full) | 720

Row | Structure (SMILES) | Potency
45 | C[C@@H]1CC2C3CCC4=CC(=O)C=CC4(C)[C@@]3(F)C(O)CC2(C)[C@@]1(O)C(=O)COP(=O)(O)O (stereo not given in full) | 2
46 | CC(C)C(=O)O[C@]1(C(=O)CO)CCC2C3C[C@H](F)C4=CC(=O)C=CC4(C)[C@@]3(F)C(O)CC21C (stereo not given in full) | <360
47 | CCCC(=O)O[C@]1(C(=O)OC)[C@@H](C)CC2C3CCC4=CC(=O)C=CC4(C)[C@@]3(F)[C@@H](O)CC21C (stereo not given in full) | 175
48 | CC(C)C(=O)OCC(=O)[C@@]1(O)C(C)CC2C3CCC4=CC(=O)C=CC4(C)[C@@]3(F)C(O)CC21C (stereo not given in full) | 90
49 | CCC(=O)O[C@]1(C(C)=O)C(C)CC2C3CCC4=CC(=O)C=CC4(C)[C@@]3(F)C(O)CC21C (stereo not given in full) | 1170
50 | CCC(=O)O[C@]1(C(=O)COC(=O)C(C)(C)C)CCC2C3C[C@H](F)C4=CC(=O)C=CC4(C)[C@@]3(F)C(O)CC21C (stereo not given in full) | 720
51 | CCCCC(=O)O[C@]1(C(=O)CO)CCC2C3CCC4=CC(=O)C=CC4(C)C3C(O)CC21C (stereo not given in full) | <1
52 | CCC(=O)O[C@]1(C(=O)OCCl)[C@@H](C)CC2C3CCC4=CC(=O)C=CC4(C)[C@@]3(F)[C@@H](O)CC21C (stereo not given in full) | 400
53 | CC(=O)OCC(=O)[C@@]1(OC(C)=O)CCC2C3C[C@H](F)C4=CC(=O)C=CC4(C)[C@@]3(F)C(O)CC21C (stereo not given in full) | 360
54 | CC(C)C(=O)OC1(C(=O)CCl)[C@@H](C)CC2C3CCC4=CC(=O)C=CC4(C)[C@]3(F)[C@@H](O)CC21C (stereo not given in full) | 378
55 | CCCOC(=O)[C@@]1(OC(=O)CC)[C@@H](C)CC2C3CCC4=CC(=O)C=CC4(C)C3(F)[C@@H](O)CC21C (stereo not given in full) | 30
56 | CC(=O)OCC(=O)[C@@]1(O)[C@H](C)C[C@H]2[C@@H]3CCC4=CC(=O)C=C[C@]4(C)[C@@]3(F)[C@@H](O)C[C@@]21C [DEXAMETHASONE ACETATE] | 8
57 | CCOC(=O)[C@@]1(OC(=O)CC)[C@@H](C)CC2C3CCC4=CC(=O)C=CC4(C)[C@@]3(F)[C@@H](O)CC21C (stereo not given in full) | 75
58 | CC(=O)[C@H]1CC[C@H]2[C@@H]3C[C@H](C)C4=CC(=O)CC[C@]4(C)[C@H]3[C@@H](O)C[C@]12C [MEDRYSONE] | <1
59 | CC(=O)OCC(=O)[C@@]12OC(C)(C)O[C@@H]1C[C@H]1[C@@H]3C[C@H](F)C4=CC(=O)C=C[C@]4(C)[C@@]3(F)[C@@H](O)C[C@@]12C [FLUOCINONIDE] | 300
60 | CCC(=O)O[C@]1(C(=O)COC(=O)C(C)C)CCC2C3C[C@H](F)C4=CC(=O)C=CC4(C)[C@@]3(F)C(O)CC21C (stereo not given in full) | 1080
61 | CCC(=O)OCC(=O)[C@@]1(OC(=O)CC)CCC2C3C[C@H](F)C4=CC(=O)C=CC4(C)[C@@]3(F)C(O)CC21C (stereo not given in full) | 853
62 | CCCCC(=O)O[C@]1(C(=O)COC(C)=O)CCC2C3C[C@H](F)C4=CC(=O)C=CC4(C)[C@@]3(F)C(O)CC21C (stereo not given in full) | 720
63 | CCC(=O)OCC(=O)[C@@]1(O)[C@@H](C)C[C@H]2[C@@H]3CCC4=CC(=O)C=C[C@]4(C)[C@@]3(F)[C@@H](O)C[C@@]21C | 40
64 | CC1CC2C3CCC4=CC(=O)C=CC4(C)[C@@]3(Cl)C(O)CC2(C)[C@@]1(O)C(=O)CO (stereo not given in full) | 0.8
65 | CC(C)C(=O)OCC(=O)[C@@]1(OC(=O)C(C)C)CCC2C3C[C@H](F)C4=CC(=O)C=CC4(C)[C@@]3(F)C(O)CC21C (stereo not given in full) | 720
